Experimental data taken from ChEMBL document CHEMBL1129257, “Potent inhibition of tumor necrosis factor-alpha production by tetrafluorothalidomide and tetrafluorophthalimides” (J Med Chem, 1996).

Legend:
Assay type in all cases: functional
Tumor necrosis factor [1] = biological target: T1, Tumor necrosis factor (Homo sapiens, UniProt P01375); assay: Inhibition of TNF-alpha production from human monocytes upon stimulation with bacterial lipopolysaccharide (LPS) at a concentration of 1 uM; details: values are per cent of control
T1 sequence (P01375 whole entry): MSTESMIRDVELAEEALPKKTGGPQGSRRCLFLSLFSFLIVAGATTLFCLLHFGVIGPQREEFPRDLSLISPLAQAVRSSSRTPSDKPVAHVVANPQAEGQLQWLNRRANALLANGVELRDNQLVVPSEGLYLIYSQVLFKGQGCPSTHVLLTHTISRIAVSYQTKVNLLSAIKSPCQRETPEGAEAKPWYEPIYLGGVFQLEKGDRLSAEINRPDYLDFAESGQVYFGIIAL

Tumor necrosis factor [2] = biological target: T1, Tumor necrosis factor; assay: Inhibition of TNF-alpha production from human monocytes upon stimulation with bacterial lipopolysaccharide (LPS) at a concentration of 100 nM; details: values are per cent of control
Tumor necrosis factor [3] = biological target: T1, Tumor necrosis factor; assay: Inhibition of TNF-alpha production from human monocytes upon stimulation with bacterial lipopolysaccharide (LPS) at a concentration of 215 nM; details: values are per cent of control
Tumor necrosis factor [4] = biological target: T1, Tumor necrosis factor; assay: Inhibition of TNF-alpha production from human monocytes upon stimulation with bacterial lipopolysaccharide (LPS) at a concentration of 464 nM; details: values are per cent of control
Tumor necrosis factor [5] = biological target: T1, Tumor necrosis factor; assay: Inhibition of TNF-alpha production from human monocytes upon stimulation with bacterial lipopolysaccharide (LPS) at a concentration of 200 uM
Tumor necrosis factor [6] = biological target: T1, Tumor necrosis factor; assay: Inhibitory activity against TNF-alpha production
Tumor necrosis factor [7] = biological target: T1, Tumor necrosis factor; assay: Inhibition of TNF-alpha production from human monocytes upon stimulation with bacterial lipopolysaccharide (LPS) at a concentration of 100 uM,
Tumor necrosis factor [8] = biological target: T1, Tumor necrosis factor; assay: Inhibition of TNF-alpha production from human monocytes upon stimulation with bacterial lipopolysaccharide (LPS) at a concentration of 215 uM,
Tumor necrosis factor [9] = biological target: T1, Tumor necrosis factor; assay: Inhibition of TNF-alpha production from human monocytes upon stimulation with bacterial lipopolysaccharide (LPS) at a concentration of 464 uM
Tumor necrosis factor [10] = biological target: T1, Tumor necrosis factor; assay: Inhibition of TNF-alpha production from human monocytes upon stimulation with bacterial lipopolysaccharide (LPS) at a concentration of 100 nM,
Tumor necrosis factor [11] = biological target: T1, Tumor necrosis factor; assay: Inhibition of TNF-alpha production from human monocytes upon stimulation with bacterial lipopolysaccharide (LPS) at a concentration of 215 nM,
Tumor necrosis factor [12] = biological target: T1, Tumor necrosis factor; assay: Inhibition of TNF-alpha production from human monocytes upon stimulation with bacterial lipopolysaccharide (LPS) at a concentration of 464 nM,

Structure (SMILES) | response, % of control (Tumor necrosis factor [1]) [%] | response, % of control (Tumor necrosis factor [2]) [%] | response, % of control (Tumor necrosis factor [3]) [%] | response, % of control (Tumor necrosis factor [4]) [%] | also measured
CC(C)c1cccc(C(C)C)c1N1C(=O)c2c(Br)c(Br)c(Br)c(Br)c2C1=O | 62 | 80 | 70 | 53 | –
O=C1CCC(N2C(=O)c3ccccc3C2=O)C(=O)N1 (stereo unspecified) | – | – | – | – | inhibition (Tumor necrosis factor [5]): 64%
O=C1CCC(N2C(=O)c3c(F)c(F)c(F)c(F)c3C2=O)C(=O)N1 (racemic) | 4 | 85 | 70 | 40 | IC50 (Tumor necrosis factor [6]): 400 nM
COC(=O)CC(c1ccc(OC)c(OC)c1)N1C(=O)c2c(F)c(F)c(F)c(F)c2C1=O (racemic) | -5 | – | – | – | inhibition (Tumor necrosis factor [7]): 55%; inhibition (Tumor necrosis factor [8]): 30%; inhibition (Tumor necrosis factor [9]): 10%
O=C1CCC(N2C(=O)c3c(Cl)c(Cl)c(Cl)c(Cl)c3C2=O)C(=O)N1 (racemic) | 75 | 80 | 90 | 80 | –
CC(C)c1cccc(C(C)C)c1N1C(=O)c2c(Cl)c(Cl)c(Cl)c(Cl)c2C1=O | 70 | 75 | 80 | 70 | –
CC(C)(C)c1cccc(C(C)(C)C)c1N1C(=O)c2c(F)c(F)c(F)c(F)c2C1=O | -2 | 40 | 30 | 15 | –
CC(C)c1cccc(C(C)C)c1N1C(=O)c2c(F)c(F)c(F)c(F)c2C1=O | 5 | 40 | 10 | 2 | –
CCc1cccc(CC)c1N1C(=O)c2c(F)c(F)c(F)c(F)c2C1=O | -1 | – | – | – | inhibition (Tumor necrosis factor [10]): 43%; inhibition (Tumor necrosis factor [11]): 20%; inhibition (Tumor necrosis factor [12]): 2%
Cc1cccc(C)c1N1C(=O)c2c(F)c(F)c(F)c(F)c2C1=O | 3 | 62 | 50 | 30 | –
O=C1c2c(F)c(F)c(F)c(F)c2C(=O)N1c1ccccc1 | 65 | 65 | 65 | 70 | –
O=C1CCC(N2C(=O)c3c(Br)c(Br)c(Br)c(Br)c3C2=O)C(=O)N1 (racemic) | 53 | 70 | 60 | 62 | –
